Data taken from US20250122455A1, “INTEGRATED SYSTEM FOR MULTIPLE CULTIVATIONS OF A BIOLOGICAL AGENT AND METHODS OF USE THEREOF” (The Hong Kong Polytechnic University, priority 2023, published 2025).

What was measured:
PAO1 static biofilms = assay: Alamar blue viability of static biofilms in the BDR device after antibiotic treatment; assay type: cell-based, Pseudomonas aeruginosa
Procedure: The PAO1 culture was diluted 100-fold in ABTGC media and inoculated at 100 μl into each channel of the microfluidic model using a syringe and needle. Then the model was placed in a 37° C. incubator for 20 mins to allow bacteria to colonize the bottom of the microwells. ABTGC media containing tobramycin (Sigma) with concentrations of 0, 0.625, 1.25, 2.5, 5 ug/ml were injected into each chamber for 12 hrs treatment. Alamar blue cell viability reagent (Thermo Fisher) was diluted with culture media to 10% and injected into chambers, then incubated at 37° C. until the color changed from blue to pink. The colored liquid was collected from the chamber for direct measurement of OD600 nm and fluorescence (Ex: 560 nm, Em: 590 nm) using a microplate reader (Thermo Scientific Varioskan LUX Multimode Microplate Reader).

P. aeruginosa biofilms = assay type: cell-based, Pseudomonas aeruginosa

| Compound | Fluorescence level of Alamar blue (PAO1 static biofilms; increasing tobramycin 0-5 ug/ml, 12 hrs treatment, without continuous flow, FIG. 22A) | Bacterial numbers (viable cell populations) (PAO1 static biofilms; increasing tobramycin, static biofilms, FIG. 22B) | Biofilm biomass change during EDA (P. aeruginosa biofilms) |
| --- | --- | --- | --- |
| NC[C@H]1O[C@H](O[C@H]2[C@H](O)[C@@H](O[C@H]3O[C@H](CO)[C@@H](O)[C@H](N)[C@H]3O)[C@H](N)C[C@@H]2N)[C@H](N)C[C@@H]1O [tobramycin] | decreased | reducing bacterial numbers |  |
| cellulase |  |  | continuous reduction of biofilm from top to bottom of the microwells |
